Earlier results, collected in article PMC8035703, “Effect of Synchronous Versus Sequential Regimens on the Pharmacokinetics and Biodistribution of Regorafenib with Irradiation” (Pharmaceutics, 2021).

Design: method as in PMID 26867886, PMID 28202227, PMID 24971021
Settings: HCC patients who received RT concurrently or sequentially with sorafenib; cited from earlier work

SMILES: CNC(=O)c1cc(Oc2ccc(NC(=O)Nc3ccc(Cl)c(C(F)(F)F)c3)cc2)ccn1 [sorafenib]
- Incidence of adverse effects: > 30%
